Key:
Aspergillus niger = assay: checkerboard drug interaction (FICI, MICc); format: cell-based;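 further: simplified diagonal checkerboard screen pairing antifungals with FPPS inhibitors, FICI calculated under the Loewe additivity model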
Method: (§2) Drug interactions between antifungals and FPPS inhibitors were investigated using a simplified checkerboard diagonal screening method ([45]). […] FICIs were determined according to the Loewe additivity model ([17]).

[1] = system: Aspergillus flavus biofilms; assay: biofilm XTT reduction assay (SIC80, SFICI); format: cell-based; conditions: for SICc / SFICI: Aspergillus flavus
Excerpt: (§1) […]. […] […].

[2] = system: Candida glabrata biofilms; assay: biofilm XTT reduction assay (SIC80, SFICI); format: cell-based; conditions: for SICc / SFICI: Candida glabrata
Excerpt: as §1

[3] = system: Aspergillus fumigatus biofilms; assay: biofilm XTT reduction assay (SIC80, SFICI); format: cell-based; conditions: for SICc / SFICI: Aspergillus fumigatus
Excerpt: as §1

[4] = system: Cryptococcus deuterogattii biofilms; assay: biofilm XTT reduction assay (SIC80, SFICI); conditions: for SICc / SFICI: Cryptococcus deuterogattii
Method: (§3) Biofilms of Cryptococcus were seeded in DMEM, and all other species were seeded in RPMI-1640.

Trichophyton soudanense = assay: MIC broth microdilution (CLSI); conditions: Trichophyton soudanense R-167
Method: (§4) Antifungal susceptibility was determined by broth microdilution according to the CLSI guidelines described in M27-Ed4 ([16]).

[5] = system: Trichophyton interdigitale; assay: checkerboard drug interaction (FICI, MICc);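 further: simplified diagonal checkerboard screen pairing antifungals with FPPS inhibitors, FICI values calculated under the Loewe additivity model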
Method: as §2

Mucor circinelloides = assay: MIC broth microdilution (CLSI); format: cell-based; conditions: Mucor circinelloides 80-14-240-5007
Method: as §4

[6] = system: Cryptococcus neoformans biofilms; assay: biofilm XTT reduction assay (SIC80, SFICI); conditions: for SICc / SFICI: Cryptococcus neoformans
Method: as §3

Aspergillus terreus = assay: MIC broth microdilution (CLSI); format: cell-based; conditions: Aspergillus terreus 75-16-089-2500
Method: as §4

Aspergillus parafelis = assay: MIC broth microdilution (CLSI); format: cell-based; conditions: Aspergillus parafelis DTO 341-F2
Method: as §4

[7] = system: Candida albicans biofilms; assay: biofilm XTT reduction assay (SIC80, SFICI); conditions: for SICc / SFICI: Candida albicans
Method: as §3

Nannizzia gypsea = assay: MIC broth microdilution (CLSI); format: cell-based; conditions: Nannizzia gypsea R-131
Method: as §4

Candida parapsilosis = assay: checkerboard drug interaction (FICI, MICc); format: cell-based;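 further: simplified diagonal checkerboard screen pairing antifungals with FPPS inhibitors, with FICI computed under the Loewe additivity model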
Method: as §2

[8] = system: Aspergillus frankstonensis; assay: checkerboard drug interaction (FICI, MICc);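 further: simplified diagonal checkerboard screen pairing antifungals with FPPS inhibitors, FICI calculated using the Loewe additivity model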
Method: as §2

CCCCCCCCCCn1cc[n+](CC(O)(P(=O)(O)O)P(=O)(O)O)c1 [10-ZOL, Decyl-zoledronate]
2: bisphosphonate MICc (Aspergillus niger; with CAS) | bisphosphonate MICc (Aspergillus niger; with KET) | bisphosphonate MICc ([8]; with AMB) | bisphosphonate MICc ([8]; with VOR)
1.09: FICI ([8]; CAS:10-ZOL)
1: FICI (Aspergillus niger; CAS:10-ZOL) | bisphosphonate MICc (Aspergillus niger; with 5FC) | bisphosphonate MICc (Aspergillus niger; with AMB) | bisphosphonate MICc (Aspergillus niger; with ITR) | bisphosphonate MICc ([5]; with 5FC) | bisphosphonate MICc ([5]; with CAS) | bisphosphonate MICc ([5]; with FLC) | bisphosphonate MICc (Candida parapsilosis; with 5FC) | FICI ([8]; ITR:10-ZOL) | bisphosphonate MICc ([8]; with 5FC)
32 µg/mL: SICc ([1]; KET:10-ZOL combination) | SICc ([3]; ITR:10-ZOL combination) | SICc ([4]; FLC:10-ZOL combination) | SICc ([4]; ITR:10-ZOL combination) | SICc ([6]; FLC:10-ZOL combination) | SICc ([7]; FLC:10-ZOL combination)
0.63: SFICI ([1]; FLC:10-ZOL) | SFICI ([2]; FLC:10-ZOL) | SFICI ([3]; FLC:10-ZOL) | SFICI ([6]; ITR:10-ZOL)
1.00: SFICI ([1]; ITR:10-ZOL) | SFICI ([2]; ITR:10-ZOL) | SFICI ([4]; FLC:10-ZOL) | SFICI ([4]; ITR:10-ZOL) | SFICI ([7]; ITR:10-ZOL) | SFICI ([7]; KET:10-ZOL)
16 µg/mL: SICc ([1]; FLC:10-ZOL combination) | SICc ([3]; KET:10-ZOL combination) | SICc ([4]; KET:10-ZOL combination) | SICc ([6]; ITR:10-ZOL combination)
4 µg/mL: SICc ([2]; FLC:10-ZOL combination) | SICc ([2]; ITR:10-ZOL combination) | MIC / MEC (Aspergillus parafelis)
≥4: FICI ([8]; VOR:10-ZOL)
128 µg/mL: SIC80 ([1]; agent alone, Aspergillus flavus ATCC 204304) | SIC80 ([3]; agent alone, Aspergillus fumigatus ATCC 204305) | SIC80 ([6]; agent alone, Cryptococcus neoformans H99) | SIC80 ([7]; agent alone, Candida albicans SC5314)
1 µg/mL: MIC / MEC (Mucor circinelloides)
0.38: SFICI ([3]; KET:10-ZOL) | SFICI ([4]; KET:10-ZOL)
64 µg/mL: SICc ([1]; ITR:10-ZOL combination) | SICc ([3]; FLC:10-ZOL combination) | SIC80 ([4]; agent alone, Cryptococcus deuterogattii R265) | SICc ([7]; ITR:10-ZOL combination) | SICc ([7]; KET:10-ZOL combination)
0.25: bisphosphonate MICc ([5]; with AMB) | bisphosphonate MICc (Candida parapsilosis; with CAS) | bisphosphonate MICc (Candida parapsilosis; with FLC) | bisphosphonate MICc (Candida parapsilosis; with KET) | bisphosphonate MICc (Candida parapsilosis; with VOR)
0.125: bisphosphonate MICc ([5]; with ITR) | bisphosphonate MICc (Candida parapsilosis; with AMB) | bisphosphonate MICc (Candida parapsilosis; with ITR) | bisphosphonate MICc ([8]; with CAS)
0.50: SFICI ([2]; KET:10-ZOL) | SFICI ([7]; FLC:10-ZOL)
1.5: FICI ([5]; 5FC:10-ZOL)
0.5: bisphosphonate MICc (Aspergillus niger; with FLC) | bisphosphonate MICc (Aspergillus niger; with VOR) | bisphosphonate MICc ([5]; with KET) | bisphosphonate MICc ([5]; with VOR) | FICI (Candida parapsilosis; CAS:10-ZOL) | bisphosphonate MICc ([8]; with FLC) | bisphosphonate MICc ([8]; with ITR) | bisphosphonate MICc ([8]; with KET)
0.56: SFICI ([6]; KET:10-ZOL)
0.75: SFICI ([1]; KET:10-ZOL) | SFICI ([3]; ITR:10-ZOL) | SFICI ([6]; FLC:10-ZOL)
2 µg/mL: SICc ([2]; KET:10-ZOL combination) | MIC / MEC (Trichophyton soudanense)
8 µg/mL: SIC80 ([2]; agent alone, Candida glabrata CBS138) | SICc ([6]; KET:10-ZOL combination)
0.5 µg/mL: MIC / MEC (Aspergillus terreus) | MIC / MEC (Nannizzia gypsea)
3: FICI ([5]; CAS:10-ZOL) | FICI ([8]; 5FC:10-ZOL)

Reference: paper PMC12892976, “Alkylation-based optimization of antifungal FPPS inhibitors yields a potent, broad-spectrum lipophilic zoledronate derivative” (mBio, 2025)
